Reference: patent publication US6867305B2, “Synthesis of epothilones, intermediates thereto and analogues thereof” (Sloan-Kettering Institute for Cancer Research, priority 1996, dated 2005)
Read-outs that look alike come from different tables or passages of the source.

Experiments:
[1] = test system: MCF-7/Adr mammary xenograft; test: Human tumor xenograft in nude mice; assay type: in vivo
[2] = test system: HL-60 promyelocytic leukemia xenograft; test: Human tumor xenograft in nude mice; assay type: in vivo
Experimental: (§1) Depending on the tumor type, treatment started on day 10 to day 21 when subcutaneous tumor size reached 35-200 mm^3, except otherwise indicated. Tumor size and body-weight were recorded every other day (Q2D) and, for humane reasons, the animals were sacrificed when tumor size reached ≧10% of body-weight. Each group, including untreated control, consisted of 3-5 animals unless otherwise indicated.
(§2) Athymic nude mice bearing the nu/nu gene were used for all human tumor xenografts. Outbred, Swiss-background mice were obtained from Charles River Laboratories. Male mice 8 weeks or older weighing 22 g and up were used for most experiments. The drug was administered via the tail vein for 6 hr.-i.v. infusion. Each individual mouse was confined in a perforated Falcon polypropylene tube restrainer for drug administration. Tumor volume was assessed by measuring length×width×height (or width) using a caliper. The programmable Harvard PHD2000 syringe pump (Harvard Apparatus) with multi-track was used for i.v. infusion. […] All animal studies were conducted in accordance with the guidelines of the National Institutes of Health “Guide for the Care and Use of Animals” and the protocol approved by the Memorial Sloan-Kettering Cancer Center's Institutional Animal Care and Use Committee. In keeping with the policy of this committee for the humane treatment of tumor-bearing animals, mice were euthanized when tumors reached ≧10% of their total body weight.
(§3) Human tumor cells (5×10^6) or tumor tissue (30-50 mg) were implanted s.c. flank in nu/nu mice (Charles River Laboratories, Wilmington, Mass.). When tumor grew to a specified size, treatment was started by every-other day×5 with 6 hr i.v.-infusion, unless otherwise indicated. Tumor volume was measured with calipers in three dimensions (length×width×height or width). Body-weight changes and lethality were monitored every other day.

[3] = test system: HT-29 colon adenocarcinoma xenograft; test: Human tumor xenograft in nude mice; assay type: in vivo
Experimental: as §1, §2, §3

[4] = test system: CCRF-CEM/Taxol leukemia xenograft; test: Human tumor xenograft in nude mice; assay type: in vivo; settings: for Lowest Average Tumor Size (T/C) / Tumor Disappearance: CCRF/Taxol, dEpoB 30 mg/kg, Taxol 20 mg/kg, Q2Dx5, 6-hr i.v. infusion
Experimental: as §1, §2, §3

[5] = test system: UL3-C ovary adenocarcinoma xenograft; test: Human tumor xenograft in nude mice; assay type: in vivo
Experimental: as §1, §2, §3

[6] = test system: PC-3 prostate adenocarcinoma xenograft; test: Human tumor xenograft in nude mice; assay type: in vivo
Experimental: as §1, §2, §3

DC-3F/ADX = test: Tumor cell growth inhibition in vitro; assay type: cell-based, hamster; settings: for IC50: DC-3F/ADX; for cross-resistance (fold of resistance vs parent cell line): DC-3F/ADX vs DC-3F
Experimental: The fresh medium containing each drug was replenished every 7-14 days. […] In each case ,the drug-exposed cells were resuspended in fresh media for a minimum of 4 days before the experiments for the cell-growth inhibition was carried out.
(§4) The cells were cultured at an initial density of 2-5×10^4 cells per ml. They were maintained in a 5% CO2-humidified atmosphere at 37° C. in RPMI mediun 1640 (GIBCO/BRL) containing penicillin (100 units/ml), streptomycin (100 μg/ml) (GIBCO/BRL), and 5% heat-inactivated fetal bovine serum. For solid tumor cells growing in a monolayer (such as MCF-7/Adr), cytotoxicitiy of the drug was determined in 96-well microtiter plates by using the sulforhodamine B method as described by Skehan et al (23) for measuring the cellular protein content. For cells that were grown in suspension (such as CCRF-CEM and its sublines), cytotoxicitiy was measured by using the 2,-3-bis(2-methoxy-4-nitro-5-sulfophenyl)-5carboxanilide)-2H terazodium hydroxide (XTT)-microculture tetrazonium method (24) in duplicate in 96-well microtiter plates. For both methods, the absorbance of each well was measured with a microplate reader (EL-340, Bio-Tek, Burlington, Vt.). Each run entailed six or seven concentrations of the tested drugs. Dose-effect relationship data were analyzed with the median-effect plot (25) by using a previously described computer program (26).

[7] = Stability in plasma in vitro (HPLC); assay type: in vitro ADME, mouse
Experimental: (FIG. 44). […] (FIG. 44).
Human blood plasma or nude mice plasma (300 μl) containing dEpoB (0.05-20 μg/ml) was added 30 μl of methanol and mixed for 2 min and then added 300 μl of methanol. The centrifuge supernatant was used for high performance liquid chromatography (HPLC). Nova-pak C18 column (15 cm) was used, with 50% acetonitrile/water with 0.8% triethylamine and 0.2% phosphoric acid as mobile phase. UV absorbance at 250 nm was measured.
Stability of dEpoF in animal plasmas. A HPLC method is set up using a NovaPak C 18, 3.9×300 mm column with a mobile phase of 50% acetonitrile in 50 mM potassium dihydrogen phosphate with 0.01% triethylamine at a flow rate of 0.8 ml/min. dEpoF is monitored at a wavelength of 260 nm and has a retention time of about 10 min. The plasma stability is performed with mouse plasma and dog plasma purchased from Pel-Freeze and human plasma from the blood center in MSKCC. A small amount of dEpoF was dissolved in 50% methanol/water at a concentration of 500 μg/mL. An aliquot of 20 μL is then spiked to 2 mL of plasma to a final plasma concentration of 5 μg/mL. The plasma samples were kept at 37 degree. […] Twenty μL of the supernatant was analyzed by HPLC without further modification. dEpoF disappears rapidly with half life about one hour in the commercial frozen mouse plasma alone, but stable in dog and human plasma.

CCRF-CEM/VBL = test: Relative potency in vitro, very highly resistant MDR cells; assay type: cell-based, human; settings: for IC50: Homo sapiens, CCRF-CEM, read-out: CCRF-CEM/VBL IC50 in μM; for Fold of Resistance (B)/(A): [IC50 CCRF-CEM/VBL]/[IC50 CCRF-CEM]
Experimental: as §4

[8] = dEpoB 30 mg/kg, Taxol 24 mg/kg, Q2Dx5, 6-hr i.v. infusion
[9] = HL-60, dEpoB 30 mg/kg, Taxol 20 mg/kg, Q2Dx5, 6-hr i.v. infusion
[10] = HT-29, dEpoB 30 mg/kg, Taxol 15 mg/kg, Q2Dx6, 6-hr i.v. infusion
[11] = dEpoB 30 mg/kg, Taxol 20 mg/kg, Q2Dx5, 6-hr i.v. infusion
[12] = PC-3, dEpoB 40 mg/kg, Taxol 15 mg/kg, Q2Dx3, 6-hr i.v. infusion

## CC(=O)O[C@H]1C(=O)[C@@]2(C)[C@H]([C@H](OC(=O)c3ccccc3)[C@]3(O)C[C@H](OC(=O)[C@H](O)[C@@H](NC(=O)c4ccccc4)c4ccccc4)C(C)=C1C3(C)C)[C@]1(OC(C)=O)CO[C@@H]1C[C@@H]2O [Taxol, paclitaxel, reference compound]
[1]; [8]
  Tumor Disappearance: 0/4
UL-3-B/Taxol; UL-3-B/Taxol
  IC50: 13.4 nM
[2]; [9]
  Tumor Disappearance: 4/4
[3]; [10]
  Tumor Disappearance: 0/4
[4]
  Lowest Average Tumor Size (T/C): 0.32
  Tumor Disappearance: 0/2
[5]; [11]
  Tumor Disappearance: 0/3
[6]; [12]
  Tumor Disappearance: 0/4
DC-3F/ADX
  IC50: 583 nM
DC-3F/ADX; listed as Paclitaxel
  IC50: 20200 nM

## C/C(=C\c1csc(C)n1)C1C[C@@H]2O[C@]2(C)CCC[C@H](C)[C@H](O)[C@@H](C)C(=O)C(C)(C)C(O)CC(=O)N1 (stereo partly shown) [aza-EpoB, aza-epothilone B]
UL-3-B/Taxol
  cross-resistance (fold of resistance vs parent cell line): 0.015[12.5] x
DC-3F/ADX
  cross-resistance (fold of resistance vs parent cell line): 33.1 x
DC-3F/ADX; listed as 15-aza-EpoB
  cross-resistance (fold of resistance vs parent cell line): 274 x
DC-3F/ADX; listed as 15-aza-EpoB, read-out: IC50
  IC50: 2380 nM
DC-3F/ADX; read-out: IC50
  IC50: 288 nM

## C/C1=C/C[C@@H](/C(C)=C/c2csc(C)n2)OC(=O)C[C@H](O)C(C)(C)C(=O)[C@H](C)[C@@H](O)[C@@H](C)CCC1 [dEpoB, 12,13-desoxyepothilone B]
[7]; nude, mouse, plasma, nude mice plasma, HPLC, read-out: t1/2 in nude mice plasma in vitro
  half-life: ~20 min
[1]; [8]
  Lowest Average Tumor Size (T/C): 0.11
  Tumor Disappearance: 0/3
[1]; i.p., ref 19 (Table 5)
  Therapeutic Effect Rank Order: dEpoB>Camptothecin>Adriamycin>Taxol
[1]; i.v. infusion
  Therapeutic Effect Rank Order: dEpoB>>VP-16, Taxol>VBL, Adriamycin
CCRF-CEM/VBL
  IC50: 0.637 µM
  Fold of Resistance (B)/(A): 8.6 x
[2]; HL-60, i.v. infusion
  Therapeutic Effect Rank Order: Taxol≧ dEpoB
[2]; [9]
  Lowest Average Tumor Size (T/C): 0.01
  Tumor Disappearance: 2/3
[3]; HT-29, i.v. infusion
  Therapeutic Effect Rank Order: Taxol>dEpoB
[3]; [10]
  Lowest Average Tumor Size (T/C): 0.02
  Tumor Disappearance: 0/3
[4]; CCRF-CEM/Taxol, i.v. infusion
  Therapeutic Effect Rank Order: dEpoB>>>Taxol
[4]
  Lowest Average Tumor Size (T/C): 0
  Tumor Disappearance: 3/3
[5]; [11]
  Lowest Average Tumor Size (T/C): 0.03
  Tumor Disappearance: 0/3
[5]; i.v. infusion
  Therapeutic Effect Rank Order: dEpoB≧ Taxol
[6]; PC-3, i.v. infusion
  Therapeutic Effect Rank Order: Taxol, VBL>dEpoB>>VP-16
[6]; PC-3, i.v. or i/p.
  Therapeutic Effect Rank Order: Taxol>dEpoB>>Adriamycin
[6]; PC-3, dEpoB 40 mg/kg, Taxol 15 mg/kg, Q2Dx3
  Therapeutic Effects dEpoB vs Taxol: <<
[6]; [12]
  Lowest Average Tumor Size (T/C): 0.12
  Tumor Disappearance: 0/3

## C/C1=C/C[C@@H](/C(C)=C/c2csc(CO)n2)OC(=O)C[C@H](O)C(C)(C)C(=O)[C@H](C)[C@@H](O)[C@@H](C)CCC1 [dEpoF, 12,13-Desoxyepothilone F]
[7]; commercial frozen mouse plasma, 5 μg/mL, 37 degree
  half life in mouse plasma: about one
CCRF-CEM/VBL
  IC50: 0.287 µM
  Fold of Resistance (B)/(A): 33.6 x
CCRF-CEM/VBL; MDR CCRF-CEM/VBL cells
  potency relative to dEpoB (times less potent): 4.5 ×
